Tests used:
human B1R receptor = target: T1, human B1R receptor (Homo sapiens, UniProt P46663); assay: Functional study on the bradykinin receptor 1 (B1R), FLIPR Ca2+ assay, hB1R cells; format: cell-based; conditions: CHO-K1, test substance 10 μM, agonist Lys-Des-Arg9-bradykinin 0.5 nM, % inhibition compared with the maximum achievable inhibition, read-out: B1R Antagonism, human [10 μM] % Inhibition
T1 construct: host or cells: CHO K1 cells (Chinese hamster ovary), stably transfected
T1 sequence (P46663 1-353): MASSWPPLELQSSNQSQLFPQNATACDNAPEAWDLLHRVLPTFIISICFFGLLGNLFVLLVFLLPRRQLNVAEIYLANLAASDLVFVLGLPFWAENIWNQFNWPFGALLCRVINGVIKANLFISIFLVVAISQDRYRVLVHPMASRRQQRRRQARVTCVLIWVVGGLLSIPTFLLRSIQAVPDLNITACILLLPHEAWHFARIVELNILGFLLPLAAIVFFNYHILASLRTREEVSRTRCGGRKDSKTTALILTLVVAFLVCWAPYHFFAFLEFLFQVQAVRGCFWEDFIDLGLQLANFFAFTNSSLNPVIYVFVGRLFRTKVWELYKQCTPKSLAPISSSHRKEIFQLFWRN
How it was run: (§1)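 Cells were dye-loaded 60 min at 37 °C, equilibrated 20 min at room temperature, then given 10 μM compound. Ten minutes later the species-matched agonist was added (0.5 nM Lys-Des-Arg9-bradykinin, human; 100 nM Des-Arg9-bradykinin, rat) and Ca2+ influx suppression expressed as % of maximum inhibition.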

B1R receptor of the rat = target: T2, B1R receptor of the rat (Rattus norvegicus, UniProt P97583); assay: Functional study on the bradykinin receptor 1 (B1R), FLIPR Ca2+ assay, rB1R cells; format: cell-based; conditions: CHO-K1, test substance 10 μM, agonist Des-Arg9-bradykinin 100 nM, % inhibition compared with the maximum achievable inhibition, read-out: B1R Antagonism, rat [10 μM] % Inhibition
T2 construct: host or cells: CHO K1 cells (Chinese hamster ovary), stably transfected
T2 sequence (P97583 1-337): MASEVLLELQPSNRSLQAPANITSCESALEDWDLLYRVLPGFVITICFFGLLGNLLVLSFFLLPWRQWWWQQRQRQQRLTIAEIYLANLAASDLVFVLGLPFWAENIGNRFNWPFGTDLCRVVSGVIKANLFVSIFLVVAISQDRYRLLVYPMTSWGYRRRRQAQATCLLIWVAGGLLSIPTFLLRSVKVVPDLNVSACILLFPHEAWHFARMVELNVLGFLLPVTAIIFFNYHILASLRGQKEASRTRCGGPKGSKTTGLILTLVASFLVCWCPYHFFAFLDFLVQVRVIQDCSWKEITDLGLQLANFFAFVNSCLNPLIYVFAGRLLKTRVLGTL
How it was run: as §1

Structure (SMILES)	inhibition at 10 µM (human B1R receptor) [%]	inhibition at 10 µM (B1R receptor of the rat) [%]
Cc1ccc(Cl)cc1N1CCN(C(=O)COCC2CCCCN2S(=O)(=O)c2c(Cl)cccc2Cl)CC1 (centres unmarked) [Example 321, 1-(4-(5-chloro-2-methylphenyl)piperazin-1-yl)-2-((1-(2,6-dichlorophenylsulfonyl)piperidin-2-yl)methoxy)ethanone]	41.2	100
O=C(COCC1CCCN1S(=O)(=O)c1c(Cl)cccc1Cl)NCc1ccc(CN2CCCC2)cc1 (centres unmarked) [Example 322, 2-((1-(2,6-dichlorophenylsulfonyl)pyrrolidin-2-yl)methoxy)-N-(4-(pyrrolidin-1-ylmethyl)benzyl)acetamide]	102	98.7
O=C(COCC1CCCN1S(=O)(=O)c1c(Cl)cccc1Cl)NCC1CCCN(Cc2ccccc2)C1 (centres unmarked) [Example 323, N-((1-benzylpiperidin-3-yl)methyl)-2-((1-(2,6-dichlorophenylsulfonyl)pyrrolidin-2-yl)methoxy)acetamide]	105	88.1
COc1cccc(N2CCN(C(=O)COCC3CCCN3S(=O)(=O)c3c(Cl)cccc3Cl)CC2)c1 (centres unmarked) [Example 324, 2-((1-(2,6-dichlorophenylsulfonyl)pyrrolidin-2-yl)methoxy)-1-(4-(3-methoxyphenyl)piperazin-1-yl)ethanone]	84	98.4
COc1ccc(N2CCN(C(=O)COCC3CCCN3S(=O)(=O)c3c(Cl)cccc3Cl)CC2)cc1 (centres unmarked) [Example 325, 2-((1-(2,6-dichlorophenylsulfonyl)pyrrolidin-2-yl)methoxy)-1-(4-(4-methoxyphenyl)piperazin-1-yl)ethanone]	102	101
O=C(COCC1CCCN1S(=O)(=O)c1c(Cl)cccc1Cl)N1CCN(CCc2ccccc2)CC1 (centres unmarked) [Example 326, 2-((1-(2,6-dichlorophenylsulfonyl)pyrrolidin-2-yl)methoxy)-1-(4-phenethylpiperazin-1-yl)ethanone]	104	101
O=C(COCC1CCCN1S(=O)(=O)c1c(Cl)cc(Cl)cc1Cl)NCC1CCCN(Cc2ccccc2)C1 (centres unmarked) [Example 327, N-((1-benzylpiperidin-3-yl)methyl)-2-((1-(2,4,6-trichlorophenylsulfonyl)pyrrolidin-2-yl)methoxy)acetamide]	104	101
COc1ccc(N2CCN(C(=O)COCC3CCCN3S(=O)(=O)c3c(Cl)cc(Cl)cc3Cl)CC2)cc1 (centres unmarked) [Example 328, 1-(4-(4-methoxyphenyl)piperazin-1-yl)-2-((1-(2,4,6-trichlorophenylsulfonyl)pyrrolidin-2-yl)methoxy)ethanone]	104	102
O=C(COCC1CCCN1S(=O)(=O)c1c(Cl)cc(Cl)cc1Cl)N1CCN(CCc2ccccc2)CC1 (centres unmarked) [Example 329, 1-(4-phenethylpiperazin-1-yl)-2-((1-(2,4,6-trichlorophenylsulfonyl)pyrrolidin-2-yl)methoxy)ethanone]	105	98.2
CN1CCN(C2CCN(C(=O)COCC3CCCN3S(=O)(=O)c3c(Cl)cc(Cl)cc3Cl)CC2)CC1 (centres unmarked) [Example 330, 1-(4-(4-methylpiperazin-1-yl)piperidin-1-yl)-2-((1-(2,4,6-trichlorophenylsulfonyl)pyrrolidin-2-yl)methoxy)ethanone]	104	100
O=C(COCC1CCCN1S(=O)(=O)c1c(Cl)cc(Cl)cc1Cl)N1CCC(CCN2CCCCC2)CC1 (centres unmarked) [Example 331, 1-(4-(2-(piperidin-1-yl)ethyl)piperidin-1-yl)-2-((1-(2,4,6-trichlorophenylsulfonyl)pyrrolidin-2-yl)methoxy)ethanone]	106	101
Cc1ccc(C)n1CCN1CCN(C(=O)COCC2CCCN2S(=O)(=O)c2c(Cl)cc(Cl)cc2Cl)CC1 (centres unmarked) [Example 332, 1-(4-(2-(2,5-dimethyl-1H-pyrrol-1-yl)ethyl)piperazin-1-yl)-2-((1-(2,4,6-trichlorophenylsulfonyl)pyrrolidin-2-yl)methoxy)ethanone]	105	101
CC(C)N(CCN1CCN(C(=O)COCC2CCCN2S(=O)(=O)c2c(Cl)cc(Cl)cc2Cl)CC1)C(C)C (centres unmarked) [Example 333, 1-(4-(2-(diisopropylamino)ethyl)piperazin-1-yl)-2-((1-(2,4,6-trichlorophenylsulfonyl)pyrrolidin-2-yl)methoxy)ethanone]	107	101
O=C(COCC1CCCN1S(=O)(=O)c1c(Cl)cc(Cl)cc1Cl)N(C1CC1)C1CCN(Cc2ccccc2)CC1 (centres unmarked) [Example 334, N-(1-benzylpiperidin-4-yl)-N-cyclopropyl-2-((1-(2,4,6-trichlorophenylsulfonyl)pyrrolidin-2-yl)methoxy)acetamide]	107	101
O=C(COCC1CCCN1S(=O)(=O)c1c(Cl)cc(Cl)cc1Cl)N1CCN(c2ccncc2)CC1 (centres unmarked) [Example 335, 1-(4-(pyridin-4-yl)piperazin-1-yl)-2-((1-(2,4,6-trichlorophenylsulfonyl)pyrrolidin-2-yl)methoxy)ethanone]	106	99.8
O=C(COCC1CCCCN1S(=O)(=O)c1c(Cl)cccc1Cl)N1CCC(N2CCCCC2)CC1 (centres unmarked) [Example 336, 1-(1,4′-bipiperidin-1′-yl)-2-((1-(2,6-dichlorophenylsulfonyl)piperidin-2-yl)methoxy)ethanone]	103	105
O=C(COCC1CCCN1S(=O)(=O)c1c(Cl)cccc1Cl)N1CCC(N2CCCCC2)CC1 (centres unmarked) [Example 337, 1-(1,4′-bipiperidin-1′-yl)-2-((1-(2,6-dichlorophenylsulfonyl)pyrrolidin-2-yl)methoxy)ethanone]	104	104
O=C(COCC1CCCN1S(=O)(=O)c1c(Cl)cc(Cl)cc1Cl)NCCN1CCCCC1 (centres unmarked) [Example 338, N-(2-(piperidin-1-yl)ethyl)-2-((1-(2,4,6-trichlorophenylsulfonyl)pyrrolidin-2-yl)methoxy)acetamide]	92.6	92.2
O=C(COCC1CCCN1S(=O)(=O)c1c(Cl)cc(Cl)cc1Cl)NCCN1CCCC1 (centres unmarked) [Example 339, N-(2-(pyrrolidin-1-yl)ethyl)-2-((1-(2,4,6-trichlorophenylsulfonyl)pyrrolidin-2-yl)methoxy)acetamide]	77.5	41.6
COc1cc(OC)cc(N2CCN(C(=O)COCC3CCCCN3S(=O)(=O)c3c(C)cc(OC)cc3C)CC2)c1 (centres unmarked) [Example 340, 1-(4-(3,5-dimethoxyphenyl)piperazin-1-yl)-2-((1-(4-methoxy-2,6-dimethylphenylsulfonyl)piperidin-2-yl)methoxy)ethanone]	105	101
COc1cc(C)c(S(=O)(=O)N2CCCCC2COCC(=O)N2CCN(CCN(C(C)C)C(C)C)CC2)c(C)c1 (centres unmarked) [Example 341, 1-(4-(2-(diisopropylamino)ethyl)piperazin-1-yl)-2-((1-(4-methoxy-2,6-dimethylphenylsulfonyl)piperidin-2-yl)methoxy)ethanone]	105	102
COc1cc(C)c(S(=O)(=O)N2CCCCC2COCC(=O)N(C2CC2)C2CCN(Cc3ccccc3)CC2)c(C)c1 (centres unmarked) [Example 342, N-(1-benzylpiperidin-4-yl)-N-cyclopropyl-2-((1-(4-methoxy-2,6-dimethylphenylsulfonyl)piperidin-2-yl)methoxy)acetamide]	104	100
COc1cc(C)c(S(=O)(=O)N2CCCCC2COCC(=O)NCCN2CCCC2)c(C)c1 (centres unmarked) [Example 343, 2-((1-(4-methoxy-2,6-dimethylphenylsulfonyl)piperidin-2-yl)methoxy)-N-(2-(pyrrolidin-1-yl)ethyl)acetamide]	80	100
COc1cc(C)c(S(=O)(=O)N2CCCCC2COCC(=O)NCCCN2CCOCC2)c(C)c1 (centres unmarked) [Example 344, 2-((1-(4-methoxy-2,6-dimethylphenylsulfonyl)piperidin-2-yl)methoxy)-N-(3-morpholinopropyl)acetamide]	48.8	88.4
COc1cc(C)c(S(=O)(=O)N2CCCCC2COCC(=O)NCc2cccnc2)c(C)c1 (centres unmarked) [Example 345, 2-((1-(4-methoxy-2,6-dimethylphenylsulfonyl)piperidin-2-yl)methoxy)-N-(pyridin-3-ylmethyl)acetamide]	22.3	95.9

From patent US8435978B2, “Substituted sulfonamide compounds” (Gruenenthal GmbH, priority 2006, dated 2013)
